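In this assay, cells in 96-well plates receive the compound at five concentrations for 48 hours. Endpoints are linearly interpolated between the surrounding concentrations. GI50 marks 50% less growth. TGI is the concentration that stops growth completely.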 A value given as a limit tells only on which side of the number the result lay.

Test systems include ACHN renal; LOX IMVI melanoma; MCF7 breast; KM12 colon; NCI-H460 lung; MDA-MB-231 breast; A549 NSCLC; COLO 205 colon; OVCAR-5 ovarian; SNB-19 CNS.
Holding throughout (experiment): NCI anticancer screen, dose series, 48 h

With `CCc1ccc(NC(=O)COC(=O)c2cc([N+](=O)[O-])ccc2Sc2nnnn2C)cc1`, the GI50 in the test on ACHN renal is 14.2 µM; with LOX IMVI melanoma, 6.75 µM; in the test on MCF7 breast, 20.1 µM; in the test with KM12 colon, 19.6 µM; in the test on NCI-H460 lung it was 13 µM; in the test on MDA-MB-231 breast, 23.6 µM. Further, the GI50 with A549 NSCLC was 19.7 µM; with COLO 205 colon it was 16 µM; with OVCAR-5 ovarian, 17.2 µM; in the test on SNB-19 CNS, 16.5 µM. In addition, the TGI with ACHN renal is 33.1 µM; in the test on LOX IMVI melanoma, 22 µM; with MCF7 breast it was 60.6 µM; in the test with KM12 colon, greater than 100 µM; in the test with NCI-H460 lung it was 33.3 µM; in the test with MDA-MB-231 breast it was greater than 100 µM. Also, the TGI in the test with A549 NSCLC was 53.1 µM; in the test on COLO 205 colon it was 33.8 µM; with OVCAR-5 ovarian it was 76 µM; in the test with SNB-19 CNS it was 52.1 µM.
On to `Cn1cc(C2=C(c3cccc(OCC(O)CO)c3)C(=O)NC2=O)c2ccccc21` (stereo not given), for which the GI50 in the test on ACHN renal, with LOX IMVI melanoma, in the test on MCF7 breast, with KM12 colon, in the test on NCI-H460 lung and with MDA-MB-231 breast was greater than 25 µM each time. The GI50 with A549 NSCLC, in the test on COLO 205 colon, in the test on OVCAR-5 ovarian and in the test on SNB-19 CNS was greater than 25 µM in each case. Further, the TGI with ACHN renal, with LOX IMVI melanoma, in the test on MCF7 breast, with KM12 colon, in the test with NCI-H460 lung and in the test on MDA-MB-231 breast was greater than 25 µM in each case. The TGI with A549 NSCLC, with COLO 205 colon, in the test with OVCAR-5 ovarian and with SNB-19 CNS was greater than 25 µM throughout.
For the compound `O=[N+]([O-])c1cccc([As]=[As]c2cccc([N+](=O)[O-])c2)c1` (stereo not given), the GI50 in the test with ACHN renal is 0.111 µM; with LOX IMVI melanoma, 0.0452 µM; in the test with MCF7 breast, 0.0327 µM; in the test on KM12 colon, 0.172 µM; in the test with NCI-H460 lung, 0.225 µM; in the test on MDA-MB-231 breast it was 0.0776 µM. In addition, the GI50 is 0.178 µM with A549 NSCLC, 0.0663 µM with COLO 205 colon, 0.0891 µM in the test with OVCAR-5 ovarian and 0.145 µM in the test with SNB-19 CNS. The TGI in the test on ACHN renal came out at 0.242 µM; in the test on LOX IMVI melanoma, 0.146 µM; in the test on MCF7 breast, 0.137 µM; in the test on KM12 colon, 0.343 µM; in the test on NCI-H460 lung, 0.5 µM; with MDA-MB-231 breast it was 0.212 µM. Besides, the TGI with A549 NSCLC worked out at 0.351 µM; in the test with COLO 205 colon, 0.18 µM; in the test with OVCAR-5 ovarian, 0.216 µM; in the test with SNB-19 CNS, 0.279 µM.
Take `O=C(Nc1ccc(Cl)c(Cl)c1)O/N=C\c1c(Cl)ccc([N+](=O)[O-])c1Cl`: the GI50 in the test with ACHN renal is 1.65 µM; with LOX IMVI melanoma it was 1.24 µM; in the test on MCF7 breast it was 0.404 µM; with KM12 colon, 1.62 µM; in the test with NCI-H460 lung, 2.63 µM; in the test with MDA-MB-231 breast, 1.56 µM. Also, the GI50 in the test with A549 NSCLC was 2.96 µM; in the test on COLO 205 colon it was 2.4 µM; in the test with OVCAR-5 ovarian, 1.86 µM; in the test with SNB-19 CNS it was 7.6 µM. The TGI with ACHN renal was found to be 3.33 µM; in the test on LOX IMVI melanoma, 2.76 µM; in the test with MCF7 breast, 2 µM; with KM12 colon, 3.21 µM; in the test with NCI-H460 lung, 7.68 µM; with MDA-MB-231 breast it was 3.41 µM. Moreover, the TGI in the test with A549 NSCLC is 10.3 µM; in the test with COLO 205 colon, 4.81 µM; in the test on OVCAR-5 ovarian, 3.84 µM; in the test on SNB-19 CNS it was 20.6 µM.
Regarding `O=C(Nc1cccc(NC(=O)Nc2cc(C(F)(F)F)ccc2Cl)c1)Nc1cc(C(F)(F)F)ccc1Cl`, the GI50 in the test with ACHN renal was 0.983 µM; in the test on LOX IMVI melanoma, 3.47 µM; in the test on MCF7 breast it was 0.516 µM; in the test on KM12 colon, 1.53 µM; with NCI-H460 lung, 2.22 µM; with MDA-MB-231 breast, 2.3 µM. The GI50 was 1.95 µM in the test with A549 NSCLC, 3.44 µM in the test on COLO 205 colon, 9.01 µM in the test on OVCAR-5 ovarian and 1.77 µM with SNB-19 CNS. Also, the TGI was found to be 11.2 µM with ACHN renal; 15.4 µM with LOX IMVI melanoma; 32.9 µM in the test on MCF7 breast; 57.1 µM in the test with KM12 colon; 10.5 µM with NCI-H460 lung; 22 µM with MDA-MB-231 breast. Further, the TGI with A549 NSCLC was 15.8 µM; with COLO 205 colon, greater than 100 µM; in the test with OVCAR-5 ovarian, greater than 100 µM; with SNB-19 CNS, 14 µM.
On to `COc1ccc(/C=C2\S/C(=N/Nc3nc(-c4ccccc4)cs3)NC2=O)cc1OC`, for which the TGI in the test on ACHN renal was greater than 100 µM; in the test with LOX IMVI melanoma it was 65.6 µM; in the test on MCF7 breast it was greater than 100 µM; in the test on KM12 colon it was 82.2 µM; in the test on NCI-H460 lung, greater than 100 µM; in the test on MDA-MB-231 breast it was 75.7 µM. Besides, the TGI with A549 NSCLC was greater than 100 µM; in the test on COLO 205 colon, greater than 100 µM; in the test on OVCAR-5 ovarian, greater than 100 µM; in the test with SNB-19 CNS it was 89.9 µM.
With `CC#CC(=O)SCCNC(=O)CC`, the TGI in the test on ACHN renal, in the test with LOX IMVI melanoma, in the test on MCF7 breast, in the test with KM12 colon, with NCI-H460 lung and in the test on MDA-MB-231 breast was greater than 10 µM each time. Moreover, the TGI in the test with A549 NSCLC, with COLO 205 colon, in the test with OVCAR-5 ovarian and in the test with SNB-19 CNS was greater than 10 µM each time.
As to `CCN(CC)Cc1ccc(Nc2nccc(-c3cnn4ncccc34)n2)cc1`, the GI50 with ACHN renal is 0.00739 µM; with LOX IMVI melanoma it was 0.00767 µM; with MCF7 breast, 0.017 µM; in the test on KM12 colon it was 0.0101 µM; in the test with NCI-H460 lung, 0.0169 µM; in the test on MDA-MB-231 breast it was 0.0226 µM. Moreover, the GI50 was 0.0163 µM in the test with A549 NSCLC, 0.00829 µM in the test with COLO 205 colon, 0.0209 µM with OVCAR-5 ovarian and 0.0296 µM in the test with SNB-19 CNS. The TGI in the test on ACHN renal was greater than 25 µM; in the test on LOX IMVI melanoma, greater than 25 µM; in the test on MCF7 breast it was 14.8 µM; with KM12 colon, 0.102 µM; in the test with NCI-H460 lung it was 2.99 µM; in the test on MDA-MB-231 breast, greater than 25 µM. Besides, the TGI was greater than 25 µM with A549 NSCLC, 0.0337 µM with COLO 205 colon, greater than 25 µM in the test with OVCAR-5 ovarian and greater than 25 µM in the test with SNB-19 CNS.
Consider `O=C(NN1C(=O)CSC12CCCC2)c1[nH]c2ccc(Br)cc2c1-c1ccccc1`, for which the GI50 with ACHN renal is greater than 100 µM; with LOX IMVI melanoma it was 45.5 µM; with MCF7 breast, 37.2 µM; with KM12 colon, 28.5 µM; with NCI-H460 lung, 46.9 µM; in the test on MDA-MB-231 breast, 32.5 µM. In addition, the GI50 in the test with A549 NSCLC is 35.5 µM; in the test with COLO 205 colon it was 53.4 µM; in the test with OVCAR-5 ovarian it was greater than 100 µM; in the test on SNB-19 CNS, 54.1 µM. The TGI in the test on ACHN renal, with LOX IMVI melanoma, with MCF7 breast, with KM12 colon, in the test on NCI-H460 lung and with MDA-MB-231 breast was greater than 100 µM each time. The TGI in the test with A549 NSCLC, in the test on COLO 205 colon, in the test with OVCAR-5 ovarian and with SNB-19 CNS was greater than 100 µM each time.
On to `COc1cc(/C=C2\Sc3scc(-c4cccc([N+](=O)[O-])c4)[n+]3C2=O)cc(OC)c1OC`, for which the TGI came to 28.1 µM in the test on ACHN renal; 24.1 µM with LOX IMVI melanoma; 13.7 µM with MCF7 breast; 41.6 µM in the test on KM12 colon; 24.2 µM in the test on NCI-H460 lung; 25.2 µM in the test with MDA-MB-231 breast. Moreover, the TGI in the test on A549 NSCLC came out at 54.3 µM; in the test on COLO 205 colon, 15.1 µM; in the test with OVCAR-5 ovarian it was 55.6 µM; in the test with SNB-19 CNS, 46.5 µM.
Take `COc1c(Cl)cc(NC(=S)C#N)cc1Cl`: the TGI in the test on ACHN renal was greater than 80.1 µM; in the test on LOX IMVI melanoma it was 38.8 µM; in the test with MCF7 breast, 92.9 µM; with KM12 colon it was 85.6 µM; in the test on NCI-H460 lung it was 68.2 µM; with MDA-MB-231 breast it was 36.1 µM. Besides, the TGI in the test on A549 NSCLC was greater than 100 µM; with COLO 205 colon it was 32.2 µM; in the test with OVCAR-5 ovarian, greater than 100 µM; in the test with SNB-19 CNS it was greater than 100 µM.
On to `C/C=C(\C)C(=O)O[C@H]1C=CC(=O)O[C@@H]1CC[C@H](O)[C@H](C)O`, for which the GI50 with ACHN renal is 33.4 µM; in the test with LOX IMVI melanoma it was 27.5 µM; in the test on MCF7 breast, 32.6 µM; in the test with KM12 colon, 48.2 µM; with NCI-H460 lung, greater than 77.3 µM; in the test with MDA-MB-231 breast, 52.2 µM. In addition, the GI50 was greater than 75.1 µM in the test on A549 NSCLC, 30.6 µM in the test with COLO 205 colon, greater than 100 µM with OVCAR-5 ovarian and 98.9 µM in the test on SNB-19 CNS. The TGI with ACHN renal is greater than 92.8 µM; in the test with LOX IMVI melanoma, greater than 78.7 µM; with MCF7 breast, greater than 100 µM; in the test on KM12 colon, greater than 100 µM; in the test on NCI-H460 lung it was greater than 100 µM; in the test with MDA-MB-231 breast it was greater than 100 µM. Besides, the TGI in the test with A549 NSCLC is greater than 100 µM; in the test with COLO 205 colon, 72.6 µM; with OVCAR-5 ovarian, greater than 100 µM; with SNB-19 CNS, greater than 100 µM.
Consider `C=C1C(=O)OC2C1C(OC(=O)/C(C)=C/C)CC(O)(CCl)C1C(O)C3OC3(C)C21O` (stereo not given), for which the TGI in the test on ACHN renal, with LOX IMVI melanoma, in the test on MCF7 breast, in the test with KM12 colon, in the test on NCI-H460 lung and in the test with MDA-MB-231 breast was greater than 50 µM in each case. The TGI is greater than 50 µM in the test with A549 NSCLC, 41.9 µM in the test with COLO 205 colon, greater than 50 µM in the test on OVCAR-5 ovarian and greater than 50 µM in the test on SNB-19 CNS.

(Values after PubChem BioAssay (NCI).)
